From PubChem BioAssay (NCI) come the findings set out here.

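Exposure lasted 48 hours, with cells grown in 96-well plates and compounds tested at five concentrations. The concentration for 50% growth inhibition is given as GI50. TGI marks complete inhibition of growth.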

Test systems include MOLT-4 leukemia; MALME-3M melanoma; HCT-15 colon; HCT-116 colon; CAKI-1 renal; ACHN renal; NCI/ADR-RES ovarian; HT29 colon; RPMI-8226 leukemia; SK-MEL-28 melanoma.
Common to all, as to test: DTP human tumour cell line panel, 48 h

In the case of `Cc1ncc(CCCN(C)C)cc1Nc1ncc2c(n1)-c1ccc(C(F)(F)F)cc1NC(=S)C2`, the GI50 was < 0.0156 µM with MOLT-4 leukemia; 0.0312 µM with MALME-3M melanoma; 0.0389 µM with HCT-15 colon; < 0.0176 µM in the assay on HCT-116 colon; 0.0779 µM in the assay with CAKI-1 renal; 0.0892 µM in the assay on ACHN renal. For the same molecule, the GI50 in the assay on NCI/ADR-RES ovarian was 0.172 µM; in the assay on HT29 colon, < 0.0168 µM; in the assay with RPMI-8226 leukemia, 0.0434 µM. Also, the total growth inhibition concentration (TGI) in the assay on MOLT-4 leukemia is 16.6 µM; in the assay with MALME-3M melanoma it was 23.6 µM; in the assay with HCT-15 colon, 15 µM; in the assay on HCT-116 colon, 14.4 µM; in the assay with CAKI-1 renal, 5.54 µM; with ACHN renal, > 53.6 µM. Moreover, the TGI in the assay with NCI/ADR-RES ovarian is > 67.7 µM; in the assay on HT29 colon, 10.2 µM; in the assay with RPMI-8226 leukemia, 21.1 µM.

Take `CCn1c(-c2ccc(OC(C)=O)cc2)c(C)c2cc(OC(C)=O)ccc21`: the total growth inhibition concentration (TGI) with MOLT-4 leukemia was 34 µM; with MALME-3M melanoma it was 76 µM; in the assay with HCT-15 colon, > 100 µM; in the assay with SK-MEL-28 melanoma it was 59.1 µM; in the assay with HCT-116 colon, 22.1 µM; in the assay on CAKI-1 renal, > 100 µM. The TGI with ACHN renal is > 100 µM; in the assay with NCI/ADR-RES ovarian it was > 100 µM; in the assay on HT29 colon, 89.6 µM; in the assay on RPMI-8226 leukemia, 42.6 µM.

Consider `Br[C](Br)(Br)[Hg][c]1ccccc1`, for which the GI50 is 3.66 µM with MOLT-4 leukemia; 1.31 µM with MALME-3M melanoma; 9.39 µM with HCT-15 colon; 14.3 µM in the assay on SK-MEL-28 melanoma; 19.7 µM in the assay with HCT-116 colon; 15.2 µM in the assay with CAKI-1 renal. The GI50 in the assay on ACHN renal was 17.1 µM; with NCI/ADR-RES ovarian, 18.3 µM; in the assay with HT29 colon, 11.1 µM; in the assay on RPMI-8226 leukemia it was 18.9 µM. Also, the TGI with MOLT-4 leukemia amounted to 35.2 µM; in the assay on MALME-3M melanoma, 3.99 µM; in the assay with HCT-15 colon it was 24 µM; in the assay with SK-MEL-28 melanoma it was 27.8 µM; in the assay with HCT-116 colon it was 47.9 µM; in the assay on CAKI-1 renal, 29.8 µM. For the same molecule, the concentration for total growth inhibition (TGI) in the assay on ACHN renal worked out at 30.8 µM; with NCI/ADR-RES ovarian, 42.2 µM; in the assay on HT29 colon it was 25.5 µM; with RPMI-8226 leukemia, 70.6 µM.

On to `CC(C)C[C@H](NC(=O)/C=C/Cn1ccc2ccccc2c1=O)B(O)O`, for which the GI50 in the assay on MOLT-4 leukemia is 2.73 µM; in the assay with MALME-3M melanoma it was 3.82 µM; with HCT-15 colon, 6.55 µM; in the assay with SK-MEL-28 melanoma it was 3.85 µM; in the assay on HCT-116 colon, 2.95 µM; in the assay on CAKI-1 renal, 4.95 µM. Further, the figures for the GI50 in the assay on ACHN renal, with NCI/ADR-RES ovarian and with RPMI-8226 leukemia were 3.33 µM, 90.8 µM and 0.845 µM, respectively. Further, the concentration for total growth inhibition (TGI) with MOLT-4 leukemia was 12.5 µM; in the assay on MALME-3M melanoma it was 23 µM; in the assay with HCT-15 colon, 48.2 µM; with SK-MEL-28 melanoma, 36 µM; in the assay on HCT-116 colon it was 12.6 µM; in the assay with CAKI-1 renal it was > 100 µM. For the same molecule, the concentration for total growth inhibition (TGI) with ACHN renal, with NCI/ADR-RES ovarian and in the assay with RPMI-8226 leukemia was > 100 µM each time.

In the case of `COc1cc(C(=O)c2cc(C)c3[nH]c4ccc(C)cc4c3c2C)cc(OC)c1OC`, the GI50 with MOLT-4 leukemia is < 0.01 µM; in the assay on MALME-3M melanoma, < 0.01 µM; in the assay with HCT-15 colon it was < 0.01 µM; with SK-MEL-28 melanoma, 1.64 µM; in the assay with HCT-116 colon, < 0.01 µM; with CAKI-1 renal it was < 0.01 µM. Also, the GI50 in the assay with ACHN renal, in the assay with NCI/ADR-RES ovarian, in the assay on HT29 colon and with RPMI-8226 leukemia was < 0.01 µM each time. In addition, the TGI with MOLT-4 leukemia was > 100 µM; in the assay on MALME-3M melanoma, > 100 µM; with HCT-15 colon, > 100 µM; with SK-MEL-28 melanoma, > 100 µM; in the assay on CAKI-1 renal, > 40.5 µM; in the assay on ACHN renal, > 100 µM. Moreover, the TGI with NCI/ADR-RES ovarian is > 32.9 µM; with HT29 colon it was 1.62 µM; in the assay with RPMI-8226 leukemia, > 100 µM.

In the case of `O=C(O)C1C(Br)(c2ccccc2)C1(Br)c1ccccc1` (stereo not drawn), the total growth inhibition concentration (TGI) in the assay on MOLT-4 leukemia was > 100 µM; in the assay on MALME-3M melanoma, > 100 µM; with HCT-15 colon it was 47.5 µM; in the assay with SK-MEL-28 melanoma it was 52.6 µM; in the assay with HCT-116 colon, > 100 µM; with CAKI-1 renal, 81.9 µM. The concentration for total growth inhibition (TGI) in the assay on ACHN renal was 57 µM; in the assay with NCI/ADR-RES ovarian it was > 100 µM; with HT29 colon it was 59 µM; in the assay with RPMI-8226 leukemia, 74.1 µM.

`ClCC[N+]12CC[N+](CCCl)(CC1)C2`: the TGI in the assay on MOLT-4 leukemia, with MALME-3M melanoma, in the assay on HCT-15 colon, with SK-MEL-28 melanoma, in the assay on HCT-116 colon and in the assay on CAKI-1 renal was > 100 µM throughout. Also, the concentration for total growth inhibition (TGI) in the assay with ACHN renal, in the assay on NCI/ADR-RES ovarian, with HT29 colon and in the assay on RPMI-8226 leukemia was > 100 µM each time.

As for `COc1ccc(/C=C/C(=O)C(CC2CCC2)C(=O)/C=C/c2ccc(OC)c(OC)c2)cc1OC`, the GI50 in the assay with MOLT-4 leukemia was 2.82 µM; in the assay with MALME-3M melanoma it was 2.09 µM; in the assay on HCT-15 colon it was 1.28 µM; in the assay on SK-MEL-28 melanoma it was 2.16 µM; with HCT-116 colon it was 0.965 µM; in the assay on ACHN renal, 1.48 µM. Moreover, the GI50 in the assay on NCI/ADR-RES ovarian was 2.58 µM; in the assay with HT29 colon it was 1.78 µM; with RPMI-8226 leukemia, 1.73 µM. Besides, the concentration for total growth inhibition (TGI) in the assay on MOLT-4 leukemia came out at 8.95 µM; with MALME-3M melanoma, 5.04 µM; in the assay with HCT-15 colon it was 3.9 µM; in the assay on SK-MEL-28 melanoma, 5.39 µM; in the assay on HCT-116 colon, 2.42 µM; in the assay on ACHN renal it was 2.95 µM. Further, the TGI in the assay with NCI/ADR-RES ovarian is > 100 µM; in the assay with HT29 colon, 4.34 µM; in the assay with RPMI-8226 leukemia, 6.4 µM.

Turning to `Cc1ccc(-c2nc3ccc(Cl)cc3c(=O)n2N2C(=O)CSC2c2ccccc2Cl)cc1` (stereo not drawn), the GI50 was > 100 µM in the assay with MOLT-4 leukemia; 5.97 µM with MALME-3M melanoma; > 100 µM with HCT-15 colon; 20.6 µM with SK-MEL-28 melanoma; 5.51 µM in the assay on HCT-116 colon; 4.82 µM in the assay with CAKI-1 renal. The GI50 was 0.627 µM with ACHN renal, 8.87 µM in the assay on NCI/ADR-RES ovarian, 60.2 µM in the assay on HT29 colon and > 100 µM in the assay with RPMI-8226 leukemia. For the same molecule, the TGI with MOLT-4 leukemia, with MALME-3M melanoma, with HCT-15 colon, in the assay with SK-MEL-28 melanoma, with HCT-116 colon and with CAKI-1 renal was > 100 µM in each case. Moreover, the TGI in the assay on ACHN renal, with NCI/ADR-RES ovarian, with HT29 colon and in the assay on RPMI-8226 leukemia was > 100 µM in each case.

The term GI50 denotes the concentration at which growth is held to half of that of the control. As a reminder, the TGI is the concentration giving total growth inhibition. The low end stands for greater sensitivity of the cells, the high end for lower sensitivity of the cells.
